Read-outs that look alike come from different tables or passages of the source.
Legend:
[1] = test system: Chenopodium album (CHEAL), common lambsquarters; assay: Postemergence herbicide evaluation, growth of Chenopodium album (CHEAL); type: in vivo; details: Chenopodium album, post-emergence, read-out: Ave. CHEAL
[2] = test system: glyphosate resistant Conyza canadensis (L.) (ERICA), horseweed; assay: Postemergence herbicide evaluation, growth of Conyza canadensis (ERICA); type: in vivo; details: Erigeron canadensis, post-emergence, read-out: Ave. ERICA
[3] = test system: weeds (ABUTH, AMATA, AMBEL, CHEAL, ERICA); assay: Postemergence herbicide evaluation, overall average % weed control across ABUTH, AMATA, AMBEL, CHEAL, ERICA; type: in vivo; details: post-emergence, average over the five weeds, read-out: Overall Ave % Weed Control; for pest or weed control at 280 g/ha: 280 g ae/ha; for pest or weed control at 560 g/ha: 560 g ae/ha
[4] = test system: Abutilon theophrasti (ABUTH), velvetleaf; assay: Postemergence herbicide evaluation, growth of Abutilon theophrasti (ABUTH); type: in vivo; details: Abutilon theophrasti, post-emergence, read-out: AVE. ABUTH
[5] = test system: Ambrosia artemisiifolia (AMBEL), common ragweed; assay: Postemergence herbicide evaluation, growth of Ambrosia artemisiifolia (AMBEL); type: in vivo; details: Ambrosia artemisiifolia, post-emergence, read-out: AVE. AMBEL
[6] = test system: Amaranthus rudis (AMATA), tall water hemp; assay: Postemergence herbicide evaluation, growth of Amaranthus rudis (AMATA); type: in vivo; details: Amaranthus tuberculatus, post-emergence, read-out: Ave. AMATA
[7] = Volatility of compounds measured by thermogravimetric analysis (TGA); type: physicochemical
[8] = 168 h, 280 g ae/ha, 7 DAA, percent reduction in plant size relative to untreated control
[9] = 168 h, 560 g ae/ha, 7 DAA, percent reduction in plant size relative to untreated control
[10] = 336 h, 280 g ae/ha, 14 DAA, percent reduction in plant size relative to untreated control
[11] = 336 h, 560 g ae/ha, 14 DAA, percent reduction in plant size relative to untreated control
[12] = 504 h, 280 g ae/ha, 21 DAA, percent reduction in plant size relative to untreated control
[13] = 504 h, 560 g ae/ha, 21 DAA, percent reduction in plant size relative to untreated control

## CC(=O)/C(C)=N/OC(=O)COc1ccc(Cl)cc1Cl [Compound A8, 3-((2-(2,4-Dichlorophenoxy)acetoxy)imino)butan-2-one]
[1]; [8]
  pest or weed control at 280 g/ha: 68%
[1]; [9]
  pest or weed control at 560 g/ha: 70%
[1]; [10]
  pest or weed control at 280 g/ha: 73%
[1]; [11]
  pest or weed control at 560 g/ha: 80%
[1]; [12]
  pest or weed control at 280 g/ha: 83%
[1]; [13]
  pest or weed control at 560 g/ha: 80%
[2]; [8]
  pest or weed control at 280 g/ha: 70%
[2]; [9]
  pest or weed control at 560 g/ha: 73%
[2]; [10]
  pest or weed control at 280 g/ha: 85%
[2]; [11]
  pest or weed control at 560 g/ha: 90%
[2]; [12]
  pest or weed control at 280 g/ha: 92%
[2]; [13]
  pest or weed control at 560 g/ha: 97%
[3]; 168 h, 7 DAA
  pest or weed control at 280 g/ha: 70%
  pest or weed control at 560 g/ha: 79%
[3]; 336 h, 14 DAA
  pest or weed control at 280 g/ha: 79%
  pest or weed control at 560 g/ha: 90%
[3]; 504 h, 21 DAA
  pest or weed control at 280 g/ha: 84%
  pest or weed control at 560 g/ha: 93%
[4]; [8]
  pest or weed control at 280 g/ha: 74%
[4]; [9]
  pest or weed control at 560 g/ha: 95%
[4]; [10]
  pest or weed control at 280 g/ha: 65%
[4]; [11]
  pest or weed control at 560 g/ha: 96%
[4]; [12]
  pest or weed control at 280 g/ha: 70%
[4]; [13]
  pest or weed control at 560 g/ha: 99%
[5]; [8]
  pest or weed control at 280 g/ha: 70%
[5]; [9]
  pest or weed control at 560 g/ha: 80%
[5]; [10]
  pest or weed control at 280 g/ha: 90%
[5]; [11]
  pest or weed control at 560 g/ha: 98%
[5]; [12]
  pest or weed control at 280 g/ha: 96%
[5]; [13]
  pest or weed control at 560 g/ha: 100%
[6]; [8]
  pest or weed control at 280 g/ha: 70%
[6]; [9]
  pest or weed control at 560 g/ha: 75%
[6]; [10]
  pest or weed control at 280 g/ha: 83%
[6]; [11]
  pest or weed control at 560 g/ha: 85%
[6]; [12]
  pest or weed control at 280 g/ha: 78%
[6]; [13]
  pest or weed control at 560 g/ha: 87%
[7]
  TGA Data (rate of weight loss, volatility): 1 µg/min

## CN(OC(=O)COc1ccc(Cl)cc1Cl)C(=O)c1ccccc1 [Compound A16, N-(2-(2,4-Dichlorophenoxy)acetoxy)-N-methylbenzamide]
[1]; [8]
  pest or weed control at 280 g/ha: 63%
[1]; [9]
  pest or weed control at 560 g/ha: 68%
[1]; [10]
  pest or weed control at 280 g/ha: 70%
[1]; [11]
  pest or weed control at 560 g/ha: 80%
[1]; [12]
  pest or weed control at 280 g/ha: 68%
[1]; [13]
  pest or weed control at 560 g/ha: 95%
[2]; [8]
  pest or weed control at 280 g/ha: 68%
[2]; [9]
  pest or weed control at 560 g/ha: 75%
[2]; [10]
  pest or weed control at 280 g/ha: 85%
[2]; [11]
  pest or weed control at 560 g/ha: 92%
[2]; [12]
  pest or weed control at 280 g/ha: 93%
[2]; [13]
  pest or weed control at 560 g/ha: 100%
[3]; 168 h, 7 DAA
  pest or weed control at 280 g/ha: 70%
  pest or weed control at 560 g/ha: 78%
[3]; 336 h, 14 DAA
  pest or weed control at 280 g/ha: 81%
  pest or weed control at 560 g/ha: 89%
[3]; 504 h, 21 DAA
  pest or weed control at 280 g/ha: 81%
  pest or weed control at 560 g/ha: 96%
[4]; [8]
  pest or weed control at 280 g/ha: 85%
[4]; [9]
  pest or weed control at 560 g/ha: 88%
[4]; [10]
  pest or weed control at 280 g/ha: 93%
[4]; [11]
  pest or weed control at 560 g/ha: 96%
[4]; [12]
  pest or weed control at 280 g/ha: 94%
[4]; [13]
  pest or weed control at 560 g/ha: 99%
[5]; [8]
  pest or weed control at 280 g/ha: 70%
[5]; [9]
  pest or weed control at 560 g/ha: 78%
[5]; [10]
  pest or weed control at 280 g/ha: 83%
[5]; [11]
  pest or weed control at 560 g/ha: 97%
[5]; [12]
  pest or weed control at 280 g/ha: 88%
[5]; [13]
  pest or weed control at 560 g/ha: 100%
[6]; [8]
  pest or weed control at 280 g/ha: 65%
[6]; [9]
  pest or weed control at 560 g/ha: 83%
[6]; [10]
  pest or weed control at 280 g/ha: 73%
[6]; [11]
  pest or weed control at 560 g/ha: 83%
[6]; [12]
  pest or weed control at 280 g/ha: 65%
[6]; [13]
  pest or weed control at 560 g/ha: 87%
[7]
  TGA Data (rate of weight loss, volatility): 4.3 µg/min

## O=C(COc1ccc(Cl)cc1Cl)Oc1ccc(Cl)cc1 [Compound E5, 4-Chlorophenyl 2-(2,4-dichlorophenoxy)acetate]
[1]; 168 h
  pest or weed control at 280 g/ha: 70%
  pest or weed control at 560 g/ha: 68%
[1]; 336 h
  pest or weed control at 280 g/ha: 73%
  pest or weed control at 560 g/ha: 83%
[1]; 504 h
  pest or weed control at 280 g/ha: 80%
  pest or weed control at 560 g/ha: 94%
[2]; 168 h
  pest or weed control at 280 g/ha: 68%
  pest or weed control at 560 g/ha: 70%
[2]; 336 h
  pest or weed control at 280 g/ha: 90%
  pest or weed control at 560 g/ha: 83%
[2]; 504 h
  pest or weed control at 280 g/ha: 95%
  pest or weed control at 560 g/ha: 90%
[3]; 168 h, 7 DAA
  pest or weed control at 280 g/ha: 71%
  pest or weed control at 560 g/ha: 75%
[3]; 336 h, 14 DAA
  pest or weed control at 280 g/ha: 84%
  pest or weed control at 560 g/ha: 88%
[3]; 504 h, 21 DAA
  pest or weed control at 280 g/ha: 88%
  pest or weed control at 560 g/ha: 93%
[4]; 168 h
  pest or weed control at 280 g/ha: 78%
  pest or weed control at 560 g/ha: 85%
[4]; 336 h
  pest or weed control at 280 g/ha: 93%
  pest or weed control at 560 g/ha: 93%
[4]; 504 h
  pest or weed control at 280 g/ha: 98%
  pest or weed control at 560 g/ha: 97%
[5]; 168 h
  pest or weed control at 280 g/ha: 68%
  pest or weed control at 560 g/ha: 75%
[5]; 336 h
  pest or weed control at 280 g/ha: 89%
  pest or weed control at 560 g/ha: 93%
[5]; 504 h
  pest or weed control at 280 g/ha: 90%
  pest or weed control at 560 g/ha: 98%
[6]; 168 h
  pest or weed control at 280 g/ha: 73%
  pest or weed control at 560 g/ha: 78%
[6]; 336 h
  pest or weed control at 280 g/ha: 75%
  pest or weed control at 560 g/ha: 89%
[6]; 504 h
  pest or weed control at 280 g/ha: 78%
  pest or weed control at 560 g/ha: 86%
[7]
  TGA Data (rate of weight loss, volatility): 0.6 µg/min

Source: patent US20260042731A1, “(2,4-DICHLOROPHENOXY)ACETIC ACID ANALOGS” (CORTEVA AGRISCIENCE LLC, priority 2022, published 2026)
